{"source": "patent US6548472B1", "about": "“Liquid cleaning compositions comprising 2-bromo-2-nitro-1,3 propanediol” (Colgate-Palmolive Co., priority 2001, dated 2003)", "system": "mixture of bacteria", "experiment": "D-value method test (rapid preservation screening, bacteria growth detection time by conductometry)", "format": "cell-based", "settings": "FIG. 1; sodium gluconate (formula B) compared with Na4EDTA (formula A, reference)", "excerpt": "This D-value method test is used for rapid screening. It compares the new product to a reference which gives satisfactory result in real life conditions and which must have a formula composition as close as possible to the tested product (in this example EDTA has been replaced by sodium gluconate). The tested product and the reference are inoculated by a mixture of bacteria. Once they have been inoculated the bacteria slowly disappear due to the beneficial influence of the preservative system. The longer the contact time, the lower the residual bacteria number. The better the preservation system, the lower the residual bacteria number at a given time. The inocculated products are then sampled at different times and the samples are diluted by a nutriant which helps bacteria proliferation. The time needed to detect bacteria in the diluted sample is then measured by conductometry (bacteria growth generally leads to a increase of conductivity). The longer the detection time in sample diluted by nutrient, the lower the residual alive bacteria number after sampling, the better the preservative system."}
{"smiles": "O=C([O-])[C@H](O)[C@@H](O)[C@H](O)[C@H](O)CO.[Na+]", "note": "[sodium gluconate]", "values": [{"measurement": "D bacteria values: Myacid BT potentiator performance", "result": "superior Myacid BT potentiator"}]}
